Format in all cases: cell-based
Assay [1] concerns PARPi-resistant CAPAN-1 clones. The assay can be described thus: Clonogenic formation, PARPi-resistant CAPAN-1 clones. To be noted: indicated doses. How it is done:
(§1) FIG. 7. a, Clonogenic formation of wild type (WT) and BRCA2−/− (clones C1 and C2) following exposure to the indicated doses of SIRT6 inhibitor OSS_128167. b, Clonogenic formation of wild type (WT), BRCA2−/− (clones C1 and C2) and BRCA2−/−-derived PARPi-resistant RPE-1 cells following exposure to 0.5 mM SIRT6 inhibitor OSS_128167. c, Clonogenic formation of parental and derived PARPi-resistant CAPAN-1 clones following exposure to the indicated doses of SIRT6 inhibitor OSS_128167. The normal breast epithelial cells MCF10A were included as an HR-proficient cell line.

Assay [2] has as its system BRCA2−/− RPE-1 cells (clones C1 and C2). In words: Clonogenic formation / survival assay, BRCA2 knockout clones. As for the experimental part: as §1
a. Quantification (top) and representative image (bottom right) of the 12-day clonogenic survival assay in WT and BRCA2^−/− cells following transduction with viral particles carrying either pLentiCRISPRv2 Neo_UNG gRNA (UNG gRNA) or relative control (CTRL gRNA) (n=3). Cells were seeded for clonogenic assay after selection with G418. Bottom left, Immunoblot analysis of UNG after G418 selection. b. […] Right, qPCR-based quantification of UNG activity in the same cell lines as in (left). c. […] Right, immunoblot analysis of UNG in the same samples as in (left). The arrows indicate UNG1 (lower) and UNG2 (upper). Vinculin was used as a loading control. d. […] Left, Quantification (left) and representative images (right) of the 12-day clonogenic survival assay in WT and NMNAT1^−/− cells complemented or not (EV, empty vector) with wild-type (WT) or catalytically-dead mutant (MUT:W169A) NMNAT1 cDNA following transfection with siBRCA2 (n=3). f. Quantification of the 12-day clonogenic survival assay in the HR-deficient cancer cell lines CAPAN1 (BRCA2 mutated) and OVCAR8 (BRCA1 promoter hypermethylation) following transfection with siUNG #7 (n=3). g. Quantification (left) and representative images (right) of the 12-day clonogenic survival assay in a panel of HR-proficient and HR-deficient cancer and normal (MCF10A) cell lines following transfection with siNMNAT1 (n=3).

Assay [3] relates to BRCA2−/−-derived PARPi-resistant RPE-1 cells. The assay can be described thus: Clonogenic formation, PARPi-resistant BRCA2 knockout cells. The settings on record: 0.5 mM inhibitor. As for the experimental part:
as §1

The subject of the next assay is WT RPE-1 cells. The assay can be described thus: 12-day clonogenic survival assay, WT cells. The settings on record: for IC50: calculated IC50, WT cells. As for the experimental part: (§2) a. Top, Immunoblot profiling of WT and NMNAT1^−/− RPE-1 cells for the indicated proteins. Bands corresponding to UNG1 (lower MW) and UNG2 (higher MW) are indicated. […] Cells were treated for 24 hours with the indicated doses of FdUrd, with and without 5 μM TAS-114. Bottom, Cell cycle distribution of WT (+/+) and NMNAT1^−/− (−/−) RPE-1 cells treated as in (top) (n=2). b. Quantification of gDNA-uracil and DNA breaks by modified comet assay with (right) and without (left) recombinant UNG (rUNG) respectively, in WT RPE-1 cells upon 24-hour FdUrd treatment with and without 5 μM TAS-114. Results are shown as tail moment. At least 80 comets per condition was measured using CometScore. […] The enzymes involved are indicated in bold and italic. Bottom, Immunoblot profiling of NMNAT1, ADP-ribosylation (PAR) and PARP1 (short and long exposures) in WT and NMNAT1^−/− cells complemented or not with wild type (WT) or catalytically-dead mutant (MUT) NMNAT1 (W169A). PARP1 was detected after membrane stripping of the anti-ADP ribosylation antibody. Cells were treated or not with PDD 00017273 (PARGi, 10 μM) for 2 hours and 10 mM MMS was added the last 10 minutes before cell lysis. Vinculin was used as loading control. d. Quantification of the 12-day clonogenic survival assay of the same cells as in (c, bottom) treated or not with the indicated doses of rucaparib (PARPi) for the duration of the experiment (n=3). e. Quantification of the 12-day clonogenic survival assay in WT (black) and NMNAT1^−/− (red) cells following exposure to the indicated doses of the indicated DNA-damaging drugs (n=3). f. Quantification of the 12-day clonogenic survival assay in WT, NMNAT1^−/−, and UNG^−/− cells following 24-hour exposure to the indicated doses of FdUrd with or without 5 μM TAS-114 (n=3). g. Quantification of the 12-day clonogenic survival assay in WT (black), NMNAT1^−/−, and UNG^−/− cells following 24-hour exposure to the indicated doses of TAS-114. (n=3). For WT cells, data are the same as in (FIG. 14c). h. Top, RT-qPCR quantification of DUT mRNA levels following 72-hour transfection of WT RPE-1 cells with DUT siRNA (siDUT) or relative control (siCTRL). Results are represented as fold change over siCTRL. (Bottom), Quantification of the 12-day clonogenic survival assay in WT (left), NMNAT1^−/− (middle), and UNG^−/− (right) cells following transfection with DUT siRNA and relative control (siCTRL). Data were expressed as a percentage (mean±s.e.m.) of colonies formed in each cell line relative to the appropriate siCTRL (n=3). i. Quantification of gDNA-uracil and DNA breaks as in (b) in WT and NMNAT1^−/− cells upon 0.08 μM FdUrd treatment with and without 5 μM TAS-114 for 24 hours.
(§3) To investigate the mechanism underlying the interplay between UNG and SMUG1, the inventors investigated the role of nuclear NAD^+ (nicotinamide adenine dinucleotide), a molecule with essential—yet poorly characterized—functions in DNA repair. In the nucleus of mammalian cells NAD^+ is synthesized by NMNAT1 (nicotinamide mononucleotide adenylyltransferase 1) and fuels the activity of PARP1 and sirtuins (FIG. 15c). The inventors generated NMNAT1 knockout (NMNAT1^−/−) RPE-1 cells and evaluated their sensitivity to a panel of DNA damaging agents (Table 1).

In the next assay the test system is MCF10A cells. In words: Clonogenic formation, normal breast epithelial cells. The settings on record: same doses as for the CAPAN-1 clones. As for the experimental part:
as §1

Another assay relates to NMNAT1−/− RPE-1 cells. The assay can be described thus: 12-day clonogenic survival assay, NMNAT1 knockout cells. The settings on record: for IC50: calculated IC50, NMNAT1−/− cells; for sensitivity of NMNAT1−/− cells relative to WT cells: drugs targeting the TS pathway; for Fold change (WT/NMNAT1−/−): ratio of IC50 WT to IC50 NMNAT1−/−. How it is done:
as §2, §3

The test system of assay [4] is cells lacking either NMNAT1 or UNG. The assay can be described thus: γH2AX foci formation (DSB) by immunofluorescence. To be noted: 24 h treatment, EdU-positive cells. How it is done:
FIG. 11. Uracil excision is regulated by nuclear NAD^+. a. Quantification of post-replicative ssDNA gaps using DNA fiber assay in P53^−/− RPE-1 cells after 48-hours transfection with the indicated siRNAs. b. Schematic of 2′-deoxyuridine (dUTP)/thymidine (dTTP) biosynthetic pathway. The biological processes involved are in italic. c. Nuclear fractionation and immunoblot profiling of the indicated proteins following 24-hour drug exposure (0.1 μM FdUrd+5 μM TAS-114) of WT and UNG^−/− cells. For the washed-out samples (w.o.), cells were harvested 24 hours after drug removal. Western blot images are representative of three experiments. d. Left, quantification of DNA breaks (left, − rUNG) and gDNA-uracil (right, + rUNG) in wild type (WT) and NMNAT1^−/− cells upon 24-hour FdUrd treatment (20 μM) and the indicated hours after drug washout (w.o.). […] Right, Quantification of UNG protein level captured as in (left) normalized over captured PCNA and H3. f. Quantification of γH2AX foci formation before and after 24 h treatment of WT (grey) and NMNAT1^−/− (orange) cells with the indicated doses of TAS-114 (μM). g. Quantification (left) and representative images (right) of 12-day clonogenic survival assay following transfection with siRNAs and drug treatment of WT and NMNAT1^−/− cells as indicated. […]
a. […] Mass spectrometry-based quantification of the indicated metabolites (n=3). c. […]

On to `O=C(Nc1ccc(O)c(C(=O)O)c1)c1cccc(NC(=O)c2ccco2)c1` [OSS_128167], for which the clonogenic formation entry in assay [1] is “resulted in cell death”; in assay [3] it was “killed the PARPi-resistant BRCA2−/− RPE-1 cells to a similar extent than the parental drug-naïve cells”. The clonogenic ability entry in assay [2] (BRCA2−/− RPE-1 cells, indicated doses) is “impaired the clonogenic ability”; in the assay on MCF10A cells, “did not affect the clonogenic ability”. Besides, the “survival of parental HRP cells” value in the assay on WT RPE-1 cells (parental HRP RPE-1 cells, indicated doses) was “no effect on the survival”.

Turning to `C[C@@H](NS(=O)(=O)CCCOCn1ccc(=O)[nH]c1=O)c1cccc(OC2CCCC2)c1` [TAS-114], the “sensitivity of BRCA2−/− cells upon UNG depletion” value in assay [2] (siUNG, 1 μM TAS-114, rescued by knockdown of SMUG1) is recorded as “sensitized”. Also, the “survival upon pharmacological inhibition of DUT” value with NMNAT1−/− RPE-1 cells (24-hour exposure) is recorded as “decreased survival”. Besides, the “DSB formation (γH2AX foci)” value in assay [4] is given as “triggered DNA double-strand break (DSB) formation exclusively during DNA replication”.

For the molecule `O=c1[nH]c(=O)n([C@H]2C[C@H](O)[C@@H](CO)O2)cc1F` [FDURD, 5-fluorodeoxyuridine], the concentration for half-maximal inhibition (IC50) is 17.7 µM with NMNAT1−/− RPE-1 cells (Homo sapiens, RPE-1) and 51.6 µM in the assay on WT RPE-1 cells (Homo sapiens, RPE-1). In the assay on NMNAT1−/− RPE-1 cells, the “sensitivity of NMNAT1−/− cells relative to WT cells” value is on record as “more sensitive than WT cells”. For the same molecule, the “Fold change (WT/NMNAT1−/−)” value in the assay on NMNAT1−/− RPE-1 cells is reported as 2.92.

In the case of `COS(C)(=O)=O` [MMS], the concentration for half-maximal inhibition (IC50) with NMNAT1−/− RPE-1 cells is 130 µM; in the assay on WT RPE-1 cells it was 242 µM. The “Fold change (WT/NMNAT1−/−)” value in the assay with NMNAT1−/− RPE-1 cells is recorded as 1.86.

In the case of `OO` [H202], in the assay with NMNAT1−/− RPE-1 cells, the half-inhibitory concentration (IC50) was 22.1 µM and the “Fold change (WT/NMNAT1−/−)” value is recorded as 1.03. The concentration for half-maximal inhibition (IC50) with WT RPE-1 cells was 22.8 µM.

Turning to `CN(Cc1cnc2nc(N)nc(N)c2n1)c1ccc(C(=O)N[C@@H](CCC(=O)O)C(=O)O)cc1` [MTX], in the assay on NMNAT1−/− RPE-1 cells, the concentration for half-maximal inhibition (IC50) was 8.8 µM, the “sensitivity of NMNAT1−/− cells relative to WT cells” value is on record as “more sensitive than WT cells” and the “Fold change (WT/NMNAT1−/−)” value came out at 12.75. In addition, in the assay on WT RPE-1 cells, the IC50 was 112 µM.

As for `NC(=O)NO` [HU, hydroxyurea], in the assay on NMNAT1−/− RPE-1 cells, the IC50 was 637 µM and the “Fold change (WT/NMNAT1−/−)” value worked out at 2.46. The half-inhibitory concentration (IC50) in the assay on WT RPE-1 cells is 1570 µM.

B1: UGI: peptide inhibitor of UNG, delivered by retroviral particles (protein, UniProt P14739 1-84, looked up)
Uracil-DNA glycosylase …: MTNLSDIIEKETGKQLVIQESILMLPEEVEEVIGNKPESDILVHTAYDESTDENVMLLTSDAPEYKPWALVIQDSNGENKIKML
For the molecule B1, the “clonogenic survival upon UNG inhibition” value in assay [2] (retroviral particles carrying UGI, versus WT cells) is “selectively kills”.

These data come from US20260234634A1, “UNG/UDG INHIBITION IN BRCA-ASSOCIATED CANCER” (INSTITUT CURIE, priority 2023, published 2026).
